How the values were obtained:
ROCK II [1] = assay: Streptozotocin (STZ) induced RhoA/ROCKII activation of rat carvenosa tissue; format: in vivo; conditions: STZ model; 2.5 mg/kg; Control 100, STZ 142 ± 28
Procedure: (§1) Electrophoresis was performed using 10% SDS-polyacrylamide gel (2 hr, 100 V, 40 mA, […] protein per lane). Separated proteins were transferred to PVDF membranes treated with 5% fat-free milk powder to block the nonspecific IgGs (90 min, 100 V) and incubated for one hour with a specific protein antibody. The blot was then incubated with anti-mouse or anti-goat IgG linked to alkaline phosphatase (1:1000) for 1 hr. Immunoreactive bands were visualized using horseradish peroxidase-conjugated secondary antibodies and subsequent electrochemiluminescence (ECL) detection (GE Healthcare Bio-Sciences Corp., Piscataway, N.J., U.S.A.). Mouse or rabbit monoclonal antibody of eNOS (Upstate, N.Y., U.S.A.), sGCα (Sigma-Adrich, CA, U.S.A., sGCβ (Santa Cruz, Calif., U.S.A.), PDE-5A (BD Tansduction, San Jose, Calif., U.S.A.), PKG (Calbiochem, San Diego, Calif., U.S.A.) ROCKII (Upstate, N.Y., U.S.A.), RhoA (Santa Cruze, Calif., U.S.A.) and the loading control protein β-actin (Sigma-Adrich, MO, U.S.A.) were used in our Western blot analysis.

VEGF [2] = assay: Western blotting of VEGF expression in isolated rat pulmonary artery ring, short-term (acute) hypoxia; format: cell-based
Procedure: (§2) In our in vitro short-term experiment, isolated rat pulmonary artery was grown under normoxia (20% O2) or hypoxia (1% O2) at 37° C. for 24 hrs as was previously done (Wu BN, et al. Int J Immunopathol Pharmacol 24:925, 2011). The heart weight and body weight ratio (HW/BW) of the rats treated with one of SPAAX-1, SPAAX-1 RX complex, Sildenafil or Sildenafil RX complex each measured on the 21st hypoxic day. All animal care and the experimental protocols of this study were approved by the Animal Care and Use Committee of the Kaohsiung Medical University. Male Wistar rats (200-250 g), provided by the National Laboratory Animal Breeding and Research Center (Taipei, Taiwan), were housed under constant temperature and controlled illumination. Food and water were available ad libitum.
(§3) Whole right lung tissues of hypoxia-treated and untreated rats were isolated and cut into small strips and placed into an extraction buffer (Tris 10 mM, pH 7.0, NaCl 140 mM, PMSF 2 mM, DTT 5 mM, NP-40 0.5%, pepstatin A 0.05 mM and leupeptin 0.2 mM) for protein extraction, and then centrifuged at 12,500 g for 30 min. To measure the expression levels of the proteins, the total proteins were extracted and Western blotting analysis was performed as described previously (Bivalacqua T J, et al., 2013, TJ PLoSONE 8: e68028. doi:10.1371/journal. pone.0068028). Briefly, the protein extract was boiled to a ratio of 4:1 with a sample buffer (Tris 100 mM, pH 6.8, glycerol 20%, SDS 4% and bromophenol blue 0.2%). Electrophoresis was performed using 10% SDS-polyacrylamide gel (2 hr, 100 V, 40 mA, […] protein per lane). Separated proteins were transferred to PVDF membranes treated with 5% fat-free milk powder to block the nonspecific IgGs (90 min, 100 V) and incubated for one hour with a specific protein antibody. The blot was then incubated with anti-mouse or anti-goat IgG linked to alkaline phosphatase (1:1000) for 1 hr. Immunoreactive bands were visualized using horseradish peroxidase-conjugated secondary antibodies and subsequent electrochemiluminescence (ECL) detection (GE Healthcare Bio-Sciences Corp., Piscataway, N.J., U.S.A.). Mouse or rabbit monoclonal antibody of eNOS (Upstate, N.Y., U.S.A.), sGCα (Sigma-Adrich, CA, U.S.A., sGCβ (Santa Cruz, Calif., U.S.A.), PDE-5A (BD Tansduction, San Jose, Calif., U.S.A.), PKG (Calbiochem, San Diego, Calif., U.S.A.) ROCKII (Upstate, N.Y., U.S.A.), RhoA (Santa Cruze, Calif., U.S.A.) and the loading control protein β-actin (Sigma-Adrich, MO, U.S.A.) were used in our Western blot analysis.
(§4) The Western blotting analysis measurements were performed as per lung tissue.

eNOS [3] = assay: Western blotting of eNOS expression in isolated rat pulmonary artery ring, short-term (acute) hypoxia or normoxia; format: cell-based; conditions: acute hypoxia
Procedure: as §2, §3, §4

eNOS [4] = assay: Streptozotocin (STZ) induced eNOS down-regulation of rat carvenosa tissue; format: in vivo; conditions: STZ model; 2.5 mg/kg; Control 100, STZ 60 ± 7.3
Procedure: as §1

ROCK II [5] = assay: Western blotting of ROCK II expression in isolated rat pulmonary artery ring, short-term (acute) hypoxia or normoxia; format: cell-based; conditions: acute hypoxia; Normoxia 100, Hypoxia 560 ± 21; listed as 1007
Procedure: as §2, §3, §4

eNOS [6] = assay: Western blotting of eNOS expression in rat carvenosus strip, acute hypoxia; format: cell-based; parameters: unit not given here; conditions: Normoxia 100, Hypoxia 62.4 ± 5.5, listed as 1007
ROCK II [7] = assay: Cigarette smoking-induced Rho/ROCK activation of rat pulmonary artery ring; format: in vivo; conditions: Nebulization (2.5 mM), Non-Smoking control 100, Smoking 540 ± 28
ROCK II [8] = assay: as above; format: in vivo; conditions: Intraperitoneal (100 mg/kg) 1 h prior to smoke exposure, Non-Smoking control 100, Smoking 530 ± 34
Procedure: Intraperitoneal SAA complex (100 mg/kg in 200 μl of the solution) or 200 μl of saline (control) were given to animals through intraperitoneal injection 1 h prior to smoke exposure.
as §3

VEGF [9] = assay: Western blotting of VEGF expression in rat carvenosus strip, acute hypoxia; format: cell-based; parameters: unit not given here; conditions: Normoxia 100, Hypoxia 170 ± 15, listed as 1007
hypoxic rats [10] = assay: Hemodynamics of rats with hypoxic PAH, chronic hypoxia 21 days; format: in vivo, rat; conditions: 5 mg/kg/day, p.o.
Excerpt: Int J Immunopathol Pharmacol 24:925, 2011). The heart weight and body weight ratio (HW/BW) of the rats treated with one of […] complex, Sildenafil or Sildenafil RX complex each measured on the 21st hypoxic day. All animal care and the experimental protocols of this study were approved by the Animal Care and Use Committee of the Kaohsiung Medical University. Male Wistar rats (200-250 g), provided by the National Laboratory Animal Breeding and Research Center (Taipei, Taiwan), were housed under constant temperature and controlled illumination. Food and water were available ad libitum. Normoxic rats were housed in room temperature air at normal atmospheric pressure (760 mm Hg). […] After completion of the exposure, tissues were prepared as indicated for contraction measurements, Western blot analysis, RNA extraction, or morphological analysis. […] Their breathing was normal and their body temperature was maintained at 37° C. […] The animals were then sacrificed by the administration of an overdose of urethane.

PDE5A = conditions: hypoxia 21 days; % of the normal level; hypoxia 43.8±12.6%
PKG = assay: Western blotting of PKG in lung tissue after long-term hypoxia; format: in vivo, rat; conditions: hypoxia 21 days
Procedure: as §3, with “Mouse or rabbit monoclonal antibody of eNOS (Upstate, N.Y., U.S.A.), sGCα (Sigma-Adrich, CA, U.S.A., sGCβ (Santa Cruz, Calif., U.S.A.), PDE-5A (BD Tansduction, San Jose, Calif., U.S.A.), PKG (Calbiochem, San Diego, Calif., U.S.A.) ROCKII (Upstate, N.Y., U.S.A.), RhoA (Santa Cruze, Calif., U.S.A.) and the loading control protein β-actin (Sigma-Adrich, MO, U.S.A.) were used in our Western blot analysis.” left out

hypoxic rats [11] = assay: Right ventricular hypertrophy (RV/LV+S, right heart index) after long-term hypoxia; format: in vivo, rat; conditions: compared to the hypoxia state
Procedure: (§5) The right lobes of the rat lungs and heart of six rats from each group were cut and soaked in formalin, dehydrated through graded alcohols, and embedded in paraffin wax. The lung tissue specimens fixed with formalin (4%) were embedded in paraffin for one hour at 4° C., cut into 4-μm-thick sections, and subjected to H&E staining before examination by light microscope. In our histopathological study, we measured the thickening of the medial wall of the small intrapulmonary arteries under an Eclipse TE2000-S (Nikon) microscope. In the heart tissues, the 4-μm-thick paraffin sections were cut from paraffin-embedded tissue blocks and de-paraffinized by immersion in xylene and rehydrated as previously described (Bivalacqua T J, et al., PLoSONE 8: e68028. doi:10.1371/journal. pone.0068028). The slices were then dyed with H&E. After gently rinsing with water, each slide was dehydrated through graded alcohols and finally soaked in xylene twice. The relative cardiac weight of right ventricle (RV)/[left ventricle (LV)+intraventricular septum (S)] ratio (i.e. right heart index) was calculated using right ventricle/left ventricle+septum (RV/LV+S). Measurements were obtained with Histolab software (Microvision Instruments, Evry, France).

hypoxic rats [12] = assay: Pulmonary artery wall thickness and muscularization (HE staining) after long-term hypoxia; format: in vivo, rat
Procedure: as §5

ROCK II [13] = assay: Western blotting of ROCK II in lung tissue after long-term hypoxia; format: in vivo, rat; conditions: hypoxia 21 days; hypoxia 144.7±12.6%
eNOS [14] = assay: Western blotting of eNOS in lung tissue after long-term hypoxia; format: in vivo, rat; conditions: hypoxia 21 days; compared to normoxia control
[15] = system: reactive oxygen species (ROS) of lung tissues; conditions: long-term hypoxia
Procedure: In our in vivo hypoxic experiments, 10-week old male Wistar rats were equally divided into four groups: a normoxia group, a hypoxia group, a hypoxia+SPAAX-1 or SPAAX-1 RX complex group, and a hypoxia+Sildenafil or Sildenafil RX complex group. All the rats were maintained on a 12-h light/12-hr dark cycle at 25±1° C. and were provided with food and water ad libitum. The normoxia group was housed in standard normoxic conditions and the other three treated groups were continuously housed in a hypoxic chamber (10% O2) for 21 days, except for a 30-min interval each day when the chamber was cleaned (FIG. 2). During which, a normoxic gas mixture was prepared from compressed air.
Pulmonary ROS was measured using 2′-7′-dichloro-fluorescein (H2DCF-DA, Molecular Probe, USA). Briefly, 10 μl of lung tissue extract was diluted 100-fold with cold PBS and labelled with 5 μmol/L 2′-7′-dichlorofluorescein, and the mixture was incubated at 37° C. for 30 minutes and put in a centrifuge (1000 rpm) for 5 min. Fluorescence was measured at 485 nm excitation and 530 nm emission to determine the concentration of H2O2 (FLUOstar Galaxy, Germany).

sGCα1 [16] = assay: Western blotting of sGCα1 expression in isolated pulmonary artery, short-term hypoxia; format: cell-based, rat
Procedure: as §2
Whole right lung tissues of hypoxia-treated and untreated rats were isolated and cut into small strips and placed into an extraction buffer (Tris 10 mM, pH 7.0, NaCl 140 mM, PMSF 2 mM, DTT 5 mM, NP-40 0.5%, pepstatin A 0.05 mM and leupeptin 0.2 mM) for protein extraction, and then centrifuged at 12,500 g for 30 min. To measure the expression levels of the proteins, the total proteins were extracted and Western blotting analysis was performed as described previously (Bivalacqua T J, et al., 2013, TJ PLoSONE 8: e68028. doi:10.1371/journal. pone.0068028). […]

sGCα1 [17] = assay: Western blotting of sGCα1 in lung tissue after long-term hypoxia; format: in vivo, rat; conditions: hypoxia 21 days; compared to normoxia control
VEGF [18] = assay: Western blotting of VEGF in lung tissue after long-term hypoxia; format: in vivo, rat; conditions: hypoxia 21 days; hypoxia 168.9±24.6%
VEGF [19] = assay: Immunohistochemistry of VEGF in pulmonary artery wall after long-term hypoxia; format: in vivo, rat
Procedure: (§6) For histological analysis, the rat pulmonary right lung sections or pulmonary artery were fixed in 4% formaldehyde for 1 hour at 4° C. After washing with phosphate buffer saline (PBS), they were sent for paraffin-embedded serial-sections. Serial cross-sections 7 μm thick were obtained from the cross-section of each pulmonary artery. Tissue sections were deparaffinized and rehydrated in an ethanol series. After tissue rehydration, endogenous peroxidase activity was quenched with 3% hydrogen peroxide for 30 minutes, and the sections were gently washed in PBS. Non-specific binding was blocked by incubation with 1% nonimmune bovine serum albumin (BSA) in PBS for 30 minutes at room temperature.
(§7) The tissue sections were incubated for 1 hour at room temperature with antibody against VEGF (ab1442, Millipore) or against eNOS (ab5589, Abcam) diluted 1:200 in PBS with 1% BSA. After being washed with PBS, the sections were incubated for 1 hour at room temperature with biotinylated goat antibody against rabbit (Dako, E-0432) and diluted 1:200 in PBS for 30 minutes at room temperature. The reaction was visualized by the addition of 3-3-diaminobenzidine (DAB) in a working solution of DAB substrate kit for peroxidase (vector lab, SK-4100) at room temperature for 5 minutes. The sections were washed in PBS for 10 minutes between each step, and counterstained with haematoxylin. […]

NOx in lung tissue = conditions: 21 days of hypoxia; control group 100%, hypoxia 59.8±3.7%
Procedure: All the rats were maintained on a 12-h light/12-hr dark cycle at 25±1° C. and were provided with food and water ad libitum. The normoxia group was housed in standard normoxic conditions and the other three treated groups were continuously housed in a hypoxic chamber (10% O2) for 21 days, except for a 30-min interval each day when the chamber was cleaned (FIG. 2). During which, a normoxic gas mixture was prepared from compressed air.
Production of NO, represented by its metabolite nitrate+nitrite (NOx), in lung tissue extracts was determined using the Griess method (Chung H H et al, Br J Pharmacol 160: 971, 2010; Vascular Pharmacology 53: 239, 2010). The three step Greiss test converts nitrate (NO3^−) into nitrite (NO2^−), resulting in a total NO2^− concentration from a standard calibration curve. The lung tissue extracts were homogenized, washed with PBS and incubated in a lysis buffer in addition to a protease inhibitor cocktail (Sigma, St. Louis, Mo.) to obtain the extracts of lung proteins. […] The samples were then incubated (25° C, 10 min) with Griess reagent [N-(1-naphthyl)-ethylenediamine: 0.2% (w/v), sulphanilamide: 2% (w/v), solubilized in double-distilled water: 95% and phosphoric acid: 5% (v/v)] and the absorbance measured at 540 nm. […]

eNOS [20] = assay: Immunohistochemistry of eNOS in pulmonary artery wall after long-term hypoxia; format: in vivo, rat
Procedure: as §6, §7

In the case of CCCc1nn(C)c2c(=O)[nH]c(-c3cc(S(=O)(=O)N4CCN(C)CC4)ccc3OCC)nc12.O=C1OC(C(O)CO)C(O)=C1O [Reagent 1007, Sildenafil L-ascorbate complex], the “ROCK II, Carvanosus tissue” value (ROCK II [1]) is reported as 38 ± 5.1%, the “VEGF expression, Pulmonary Artery Ring” value (VEGF [2]; Normoxia 100, Hypoxia 175 ± 14, listed as 1007) is reported as 92 ± 6.4 and the “eNOS expression, Pulmonary Artery Ring” value (eNOS [3]; Normoxia 100, Hypoxia 65.3 ± 7.8, listed as 1007) is reported as 160 ± 5.8. The “eNOS, Carvanosus tissue” value (eNOS [4]) was 84 ± 8.2%, the “ROCK II expression, Pulmonary Artery Ring” value (ROCK II [5]) was 190 ± 7.7 and the “eNOS expression, Carvenosus” value (eNOS [6]) was 142 ± 6.9. For the same molecule, the “ROCK II of pulmonary artery ring” value (ROCK II [7]) was 66 ± 5.1, the “ROCK II of pulmonary artery ring” value (ROCK II [8]) was 84 ± 8.2 and the “VEGF expression, Carvenosus” value (VEGF [9]) was 94 ± 6.8.

For CCCc1nn(C)c2c(=O)[nH]c(-c3cc(S(=O)(=O)N4CCN(C)CC4)ccc3OCC)nc12.O=C1OC(C(O)CO)C(O)=C1O [Sildenafil ascorbate complex], the “VEGF in acute hypoxia” value (VEGF [2]; isolated pulmonary artery) was “inhibited”, the “BW (body weight)” value (hypoxic rats [10]) was 275.1 ± 10.4 g and the “MPAP (mean pulmonary arterial pressure)” value (hypoxic rats [10]; normoxia 12.9 ± 0.9, hypoxia 26.5 ± 0.6) was 19.8±0.7 mmHg. The “PDE5A expression in lung tissue” value (PDE5A) was 109.0±3.8%, the “PKG expression in lung tissue” value (PKG) was 68.7±3.7% and the “eNOS in acute hypoxia” value (eNOS [3]; isolated pulmonary artery) was “restored”. For the same molecule, the “thickness of Right ventricular” value (hypoxic rats [11]) was “reduced”, the “hypoxia-induced pulmonary artery wall thickness” value (hypoxic rats [12]; hypoxia 21 days, 5 mg/kg/day, hypoxia 165.8±5.4%) was “inhibited” and the “muscularizations of distal pulmonary artery (HE staining)” value (hypoxic rats [12]; hypoxic rats, versus vehicle only) was “significantly lower”. For the same molecule, the “ROCKII expression in lung tissue” value (ROCK II [13]) was 97.4±10.9%, the “eNOS expression in lung tissue” value (eNOS [14]) was 102.6±7.7% and the “hypoxia-induced increase of dichlorofluorescein (ROS of lung tissues)” value [15] was “reduced”. The SGC-a in hypoxia (sGCα1 [16]) was “neither SPAAX-1 ascorbate complex nor Sildenafil ascorbate complex significantly affected”, the “sGCα1 expression in lung tissue” value (sGCα1 [17]) was 72.0±4.7% and the “VEGF expression in lung tissue” value (VEGF [18]) was 125.7±22.5%. The “VEGF immunostaining reactivity of pulmonary artery” value (VEGF [19]) was “reduced”, the “levels of NOx in lung tissue” value (NOx in lung tissue) was 84.5±14.2% and the “eNOS immunostaining reactivity of pulmonary artery” value (eNOS [20]) was “restored the decay of eNOS”.

— patent US20150306107A1, “SAA Derivative Compound Restores eNOS And Inhibits Oxidative Stress-Induced A Diseases In Hypoxia” (JANSFAT BIOTECHNOLOGY CO., LTD., priority 2014, published 2015)
